{"source": "patent US4062948A", "about": "“Dihydromocimycin antibiotics” (Gist-Brocades N.V., priority 1970, dated 1977)", "key": {"[1]": {"assay": "Stability of the solid antibiotic", "assay_type": "physicochemical", "conditions": "for stable (solid): 100% relative humidity"}, "[2]": {"test_system": "mice", "assay": "Acute toxicity in mice", "assay_type": "in vivo", "description": "The toxicity of the antibiotic has been studied in various animals."}, "[3]": {"test_system": "Sarcina lutea ATCC 9341", "assay": "micro liquid serial dilution test (Table II)", "assay_type": "cell-based", "conditions": "Micrococcus luteus, ATCC9341; 18 hours at 30° C or 37° C; read-out: Minimum inhibitory concentration", "protocol": "(§1) The microbiological activity of the antibiotic preparation towards a number of micoorganisms has been determined by a micro liquid serial dilution test:\n(§2) A stock solution of the test compounds at a concentration of 200 μg/ml in 0.05 molar phosphate buffer at a pH of 6.5 was prepared and serial 1:1 dilutions were made with a liquid medium inoculated with the test organism, using conventional glass spot-test plates. The plates were incubated 18 hours at 30° C or 37° C. The minimum inhibitory concentration (MIC) which is the smallest concentration of compound completely inhibiting the growth of the test organism is read and calculated in μg/ml."}, "[4]": {"test_system": "Staphylococcus aureus A 55 (ATCC 65388)", "assay": "micro liquid serial dilution test (Table II)", "assay_type": "cell-based", "conditions": "ATCC65388, 18 h, read-out: Minimum inhibitory concentration", "protocol": "as §1, §2"}, "[5]": {"test_system": "Streptococcus haemolyticus A 266", "assay": "micro liquid serial dilution test (Table II)", "assay_type": "cell-based", "conditions": "A266, 18 hours at 30° C or 37° C, read-out: Minimum inhibitory concentration", "protocol": "as §1, §2"}, "[6]": {"test_system": "Mycoplasma gallisepticum K 514", "assay": "micro liquid serial dilution test (Table II)", "assay_type": "cell-based", "protocol": "as §1, §2"}, "[7]": {"test_system": "Candida parapsilosis A 952", "assay": "micro liquid serial dilution test (Table II)", "assay_type": "cell-based", "conditions": "Lodderomyces parapsilosis, A952; 18 hours at 30° C or 37° C; read-out: Minimum inhibitory concentration", "protocol": "as §1, §2"}, "[8]": {"test_system": "Micrococcus flavus A 54", "assay": "micro liquid serial dilution test (Table II)", "assay_type": "cell-based", "conditions": "A54, 18 hours at 30° C or 37° C, read-out: Minimum inhibitory concentration", "protocol": "as §1, §2"}, "[9]": {"test_system": "Haemophilus influenzae A 773", "assay": "micro liquid serial dilution test (Table II)", "assay_type": "cell-based", "conditions": "A773, 18 hours at 30° C or 37° C, read-out: Minimum inhibitory concentration", "protocol": "as §1, §2"}, "[10]": {"test_system": "Streptococcus disgalactiae A 730", "assay": "micro liquid serial dilution test (Table II)", "assay_type": "cell-based", "conditions": "A730, 18 hours at 30° C or 37° C, read-out: Minimum inhibitory concentration", "protocol": "as §1, §2"}}}
{"smiles": "CC=CC=CC1OC(O)(C(CC)C(=O)NCC=CC=C(C)C(OC)C(C)C2OC(C=CC=CC=C(C)C(=O)c3c(O)cc[nH]c3=O)C(O)C2O)C(O)C(O)C1(C)C", "note": "(centres unmarked) [mocimycin]", "values": [{"measurement": "no loss in activity of the solid", "setting": "[1]; 25° C and 37° C, low relative humidities", "value": "at least 5 months"}, {"measurement": "stable (solid)", "setting": "[1]; 25° C", "value": 3, "unit": "months"}, {"measurement": "stable (solid)", "setting": "[1]; 37° C", "value": 2, "unit": "months"}, {"measurement": "lethality", "setting": "[2]; 1,000 mg/kg i.p., mice", "value": "does not kill mice"}, {"measurement": "acute toxicity", "setting": "[2]; various animals", "value": "very low"}, {"measurement": "MIC", "setting": "[3]", "value": 25, "unit": "µg/mL"}, {"measurement": "MIC", "setting": "[4]", "value": 100, "unit": "µg/mL"}, {"measurement": "MIC", "setting": "[5]", "value": 2, "unit": "µg/mL"}, {"measurement": "MIC", "setting": "[6]; Mycoplasmoides gallisepticum, K514, 18 hours at 30° C or 37° C, read-out: Minimum inhibitory concentration", "value": 0.1, "unit": "µg/mL"}, {"measurement": "activity against Mycoplasma gallisepticum", "setting": "[6]; in vitro, summary of Table II", "value": "high activity"}, {"measurement": "MIC", "setting": "[7]", "value": "> 100", "unit": "µg/mL"}, {"measurement": "MIC", "setting": "[8]", "value": 4, "unit": "µg/mL"}, {"measurement": "MIC", "setting": "[9]", "value": 2, "unit": "µg/mL"}, {"measurement": "MIC", "setting": "[10]", "value": 0.6, "unit": "µg/mL"}]}
